From publication PMC10318456, “Selective inhibitors of the PSEN1–gamma-secretase complex” (The Journal of Biological Chemistry, 2023) come the findings set out here.

Common to all, as to format: cell-based
Assay [1] deals with T1, PSEN1 Y154A–APH1A γ-secretase complex (Homo sapiens, UniProt P49768+Q92542+Q96BI3+Q9NZ42, Y154A).
T1 construct: expressed in transfected cells; host or cells: Psen1/2 double KO/Aph1ABC triple KO MEFs, pools without clonal selection
The assay can be described thus: Aβ40 secretion, MEF cell pool restored with PSEN1 Y154A–APH1A. The conditions noted are these: PSEN1 Y154A (TM2)–APH1A cell pool; N = 3 to 4; mean (95% CI); decimal comma. As to the method:
(§1) We turned to experimental site–directed mutagenesis and selected a series of amino acids (Fig. 3) in the entrance channel for mutation to alanine. […] More importantly, they were all enzymatically active as shown by the secretion of Aβ40 in the supernatants of the cell cultures (Fig. 3B).
(§2) Conditional Psen1/2 double KO mice were crossed with conditional Aph1ABC triple KO mice ([29], [52], [58], [59]). At embryonic day 7.5, embryos were dissected and dissociated, and cells were plated in the presence of Dulbecco’s modified Eagle’s medium (DMEM)/F12 50% fetal calf serum (FCS) (Invitrogen). Primary MEFs were immortalized by transduction with LargeT antigen. Psen1/2 double KO/Aph1ABC triple KO MEFs were generated by transduction with a Cre-GFP–expressing adenoviral vector, and GFP-positive MEFs were sorted by fluorescence-activated cell sorting analysis. Psen1/2 Aph1ABC-deficient MEFs were maintained in DMEM/f12 10% FCS. To rescue γ-secretase expression, Psen1/2 double KO/Aph1ABC triple KO MEFs were transduced using Murine Stem Cell Virus retroviral vector system (pMSCV) viral vectors (Clontech) containing the human coding sequences of the different PSEN and APH1 homologs and the zeocin selection marker. An Internal Ribosome Entry Site sequence was cloned between the coding sequences for PSEN and APH1 to ensure co-expression of both proteins. Stable transfected cell lines were selected using 500-μg/ml zeocin (Invitrogen). Four different combinations were made: PSEN1 and APH1AL, PSEN1 and APH1B, PSEN2 and APH1AL, and PSEN2 and APH1B. These cell lines were transduced with pMSCV viral vectors (Clontech) expressing APP-C99-GFP-puromycin. […]
(§3) The number of plated cells and incubation times were determined in respect to linearity of Aβ peptide secretion, the dynamic range of Aβ peptide quantification in the medium, and sensitivity to dimethylsulfoxide (DMSO). […] The cell viability was assessed using the CellTiter-Glo Luminescent assay (Promega) that measures ATP production. […] We however measured five compounds at the Leuven site and noticed that absolute IC50 values were different (Fig. S2). […]

Assay [2] addresses T2, PSEN1 T147A–APH1A γ-secretase complex (Homo sapiens, UniProt P49768+Q92542+Q96BI3+Q9NZ42, T147A).
T2 construct: expressed in transfected cells; host or cells: Psen1/2 double KO/Aph1ABC triple KO MEFs, pools without clonal selection
The assay can be described thus: Aβ40 secretion, MEF cell pool restored with PSEN1 T147A–APH1A. The conditions noted are these: PSEN1 T147A (TM2)–APH1A cell pool; N = 3 to 4; mean (95% CI); decimal comma. As to the method: as §1, §2, §3

Assay [3] addresses T3, PSEN1 Y154A–APH1A γ-secretase complex (Homo sapiens, UniProt P49768, Y154A).
T3 construct: expressed in transfected cells; host or cells: Psen1/2 double KO/Aph1ABC triple KO MEFs, pools without clonal selection
Put plainly: Aβ40 secretion, MEF cell pool restored with PSEN1 Y154A–APH1A. The conditions noted are these: decimal comma. As to the method: as §1, §2, §3

Assay [4] deals with T4, PSEN1 T147A–APH1A γ-secretase complex (Homo sapiens, UniProt P49768, T147A).
T4 construct: expressed in transfected cells; host or cells: Psen1/2 double KO/Aph1ABC triple KO MEFs, pools without clonal selection
Put plainly: Aβ40 secretion, MEF cell pool restored with PSEN1 T147A–APH1A. The conditions noted are these: decimal comma. As to the method:
as §1, §2, §3

One may read the IC50 as the concentration needed to halve the response being measured. Take `O=S(=O)(c1ccc(Cl)cc1)N1[C@H]2CC[C@@H]([C@H]1c1ccc(C(F)(F)F)cc1)[C@@H](O)C2` [(+)-9b]: the IC50 in assay [1] amounted to 1.03 µM; in assay [2], 0.852 µM.
Consider `C[C@H](NC(=O)Cc1cc(F)cc(F)c1)C(=O)N[C@H](C(=O)OC(C)(C)C)c1ccccc1` [DAPT], for which the IC50 in assay [3] (PSEN1 Y154A (TM2)–APH1A cell pool, N = 3 to 4, mean (95% CI)) was 0.103 µM; in assay [4] (PSEN1 T147A (TM2)–APH1A cell pool, N = 3 to 4, mean (95% CI)) it was 0.477 µM. Besides, the entries for the “IC50 fold change to WT” value in assay [3] (PSEN1 Y154A–APH1A cell pool) and in assay [4] (PSEN1 T147A–APH1A cell pool) were 0,611 fold and 2,826 fold, respectively.
